Results: patent US10369133B2, “Immunosuppressive compounds and therapeutics” (UNIVERSITY OF TENNESSEE RESEARCH FOUNDATION, priority 2013, dated 2019)

Key:
human PBMCs in NSG mice = assay: Immunosuppressive effect in humanized NSG mice; assay type: in vivo, mouse; conditions: for amount of human CD3+ T cells in the mouse spleen / serum human IgG level: 50 mg/kg intraperitoneally, consecutive 7 shots, compared with saline
Experimental: Human PBMCs (5×10^6/mouse) were injected intraperitoneally into NSG mice to introduce human immunity. Sections were stained to indicate human CD3+ T cells (red) and counterstained with DAPI (blue). […] Results are presented as the mean±S.D., n=5.
Human PBMCs were isolated from buffy coats by gradient centrifugation using Ficoll Paque. The T cells and B cells of PBMCs were stained with FITC conjugated CD3 antibody and APC conjugated CD19 antibody, respectively, and characterized using flow cytometry. The PBMCs were infused into diabetic NSG mice at the concentration of 5×10^6/mouse to establish human immunity. The settlement of T cells in the spleen was assessed by immunofluorescence staining. Briefly, spleen were isolated, washed with PBS, fixed in 4% paraformaldehyde overnight, and embedded in optimal cutting temperature compound. Frozen sections of 5 μm thickness were cut. The slides were stained with rabbit anti-human CD3 primary antibody (1:200) at 4° C. overnight and Alexa Fluor 568 conjugated goat anti-rabbit secondary antibody (1:500) at room temperature for 1 h. The function of B cells was assessed by measuring human IgG concentration in the mouse blood.
To test the immunosuppressive effect of JP-3-110 in vivo, a humanized mouse model was used. Briefly, human PBMCs (5×10^6/mouse) were adoptively transferred into immunodeficient NSG mice to build human immunity. The human IgG level in the serum and human CD3+ T cell staining in the spleen was used to confirm the existence of human immunity (FIG. 8B). JP-3-110 and MPA was administrated intraperitoneally at 50 mg/kg for consecutive 7 shots.

PHA-stimulated T cells = assay: T cell activation markers in medium of PHA-stimulated T cells by ELISA; assay type: cell-based, human; conditions: 5 μM; for level of IFNγ / level of TNFα: medium of T cells following PHA stimulation; for level of IL-2 / level of IL-2 receptors: medium of T cells, 48 h following PHA stimulation
Experimental: Briefly, human peripheral blood mononuclear cells PBMCs were isolated from human buffy coat using Ficoll-Paque. T cells ([…]) were isolated from PBMCs using dynabeads for human CD3+ T cells and subjected to PHA (1 μg/mL) stimulation for 24 h alone or with JP-3-110 (5 μM) and MPA (5 μM) for additional 48 h. The PHA-stimulated proliferation of T cells is characterized by a quick drop in the early stage (24 h) and a following fast-proliferative stage. FIGS. 3B and 3C show charts depicting the levels of IL-2, IL-2 receptor, TNFα and IFNγ in the media of T cells at 48 h following PHA stimulation. IL-2 and IL-2 receptor were transient expressed markers for early stage T cell activation while TNFα and IFNγ were stably expressed markers for later-stage T cell activation. Results are presented as the mean±S.D., n=6.
(§1) PBMCs were isolated using Ficoll Paque. T cells were isolated from PBMCs using Dynabeads for. T cells were stimulated with PHA (1 μg/ml) for 24 h alone or in the presence of TNP (5 μM) or JP-3-110 (5 μM) for additional 4 days. The total number of PBMCs was measured using T4 Automatic Cell Counter (Nexcelom, Lawrence, Mass.). The extent of T cell activation was determined by measuring the level of IL-2, IL-2sRa, TNFα and IFN-γ in the medium using ELISA at indicated time.
Mixed lymphocytes reaction was used to determine the immunosuppressive effects of MPA and JP-3-110. T cells were purified using dynabeads from peripheral blood mononuclear cells (PBMCs), which were initially isolated from human buffy coat (FIG. 8A). […] The levels of IL-2, IL-2sRa, TNFα and IFNγ were detected by ELISA to study the effects of JP-3-110 and MPA on T cell activation. IL-2 and IL-2R typically peaked at the first 48 h after PHA stimulation as markers for the early stage T cell activation, while TNFα and IFNγ were constitutively expressed by PHA-stimulated T cells as later-stage markers for T cell activation. […] However, the results might be due to an overlap between the immunosuppressive pathway and the anti-inflammatory pathway of JP-3-110 and MPA.

human CD3+ T cells = assay: Mixed lymphocyte reaction: proliferation of PHA-stimulated T cells; assay type: cell-based; conditions: PHA 1 μg/mL; 5 μM; in 4 days
Experimental: Briefly, human peripheral blood mononuclear cells PBMCs were isolated from human buffy coat using Ficoll-Paque. […] Results are presented as the mean±S.D., n=6.
as §1
Mixed lymphocytes reaction was used to determine the immunosuppressive effects of MPA and JP-3-110. T cells were purified using dynabeads from peripheral blood mononuclear cells (PBMCs), which were initially isolated from human buffy coat (FIG. 8A). […] The levels of IL-2, IL-2sRa, TNFα and IFNγ were detected by ELISA to study the effects of JP-3-110 and MPA on T cell activation.

human islets = assay: Annexin V-FITC flow cytometry of apoptotic cells in human islets; assay type: cell-based; conditions: 20 μM, 5 days coculture
Experimental: Results are presented as the mean±S.D., n=3. […] Apoptotic cells were stained in dark (arrows). […] Islet was collected and dispersed with 0.25% Trypsin/EDTA into single cell suspension. P3 indicated the percentage of apoptotic cells. All experiments were performed in triplicates. Results are presented as the mean±SD. *p<0.05 as determined by an unpaired Student's t-test, n=6.
The apoptosis of INS-1E cells was analyzed using terminal deoxynucleotidyl transferase dUTP nick end labeling (TUNEL). Briefly, following JP-3-110 treatment for 48 h and cytokine cocktail treatment for additional 48 h, INS-1E cells were characterized by the DeadEnd™ Colorimetric TUNEL system (Promega, Madison, Wis., USA), in which fragmented DNA from apoptotic cells was labeled with biotinylated nucleotide and detected using hydrogen peroxide and diaminobenzidine. For human islets, following treatment with JP-3-110 and cytokines, human islets were digested with 0.25% trypsin/EDTA into a single-cell suspension, stained with the Annexin V-FITC Apoptosis Detection Kit (Abcam, Cambridge, Mass.) and analyzed with flow cytometry. Annexin V binds to phosphatidylserine on the cell surface, which is a feature found in apoptotic cells. Fluorescent intensity was analyzed using CellQuest software (BD Bioscience, Franklin Lakes, N.J.). […]
We then determined the conjugation with TNP can reduce the pro-apoptotic effect of MPA. […]

With `CCCCNC(=O)[C@]1(O)C[C@@H](O)[C@@H](O)[C@H](OC(=O)CC/C(C)=C/Cc2c(OC)c(C)c3c(c2OC(C)=O)C(=O)OC3)C1` [JP-3-110, (1R,2R,3R,5S)-5-(butylcarbamoyl)-2,3,5-trihydroxycyclohexyl (E)-6-(4-acetoxy-6-methoxy-7-methyl-3-oxo-1,3-dihydroisobenzofuran-5-yl)-4-methylhex-4-enoate] the “amount of human CD3+ T cells in the mouse spleen” value (human PBMCs in NSG mice) was “significantly reduced”, the “serum human IgG level” value (human PBMCs in NSG mice) was “significantly reduced” and the “level of IFNγ” value (PHA-stimulated T cells) was “moderate inhibition”. The “level of TNFα” value (PHA-stimulated T cells) was “moderate inhibition”, the “level of IL-2” value (PHA-stimulated T cells) was “did not have any effect” and the “level of IL-2 receptors” value (PHA-stimulated T cells) was “did not have any effect”. For the same compound, the “proliferation of T cells” value (human CD3+ T cells) was “equally potent as MPA” and the “apoptotic cells in human islets (annexin V)” value (human islets) was “significantly reduced the percentage of apoptotic cells”.

With `COc1c(C)c2c(c(O)c1C/C=C(\C)CCC(=O)O)C(=O)OC2` [MPA, mycophenolic acid, reference compound] the “amount of human CD3+ T cells in the mouse spleen” value (human PBMCs in NSG mice) was “significantly reduced”, the “serum human IgG level” value (human PBMCs in NSG mice) was “significantly reduced” and the “immunosuppressive effect, MPA compared with JP-3-110” value (human PBMCs in NSG mice; humanized NSG mice, 50 mg/kg each) was “slightly better immunosuppressive effect than JP-3-110”. For the same compound, the “level of IFNγ” value (PHA-stimulated T cells) was “moderate inhibition”, the “level of TNFα” value (PHA-stimulated T cells) was “moderate inhibition” and the “level of IL-2” value (PHA-stimulated T cells) was “did not have any effect”. For the same compound, the “level of IL-2 receptors” value (PHA-stimulated T cells) was “did not have any effect”, the “proliferation of T cells” value (human CD3+ T cells) was “suppress the proliferation of T cells” and the “apoptotic cells in human islets (annexin V)” value (human islets) was “induced substantial apoptotic cell death”.
